Results: PubChem BioAssay (NCI)
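Method: 48-hour compound exposure of cells in 96-well plates, five concentrations, linear interpolation of endpoints. GI50 = concentration required for 50% inhibition of growth. At the TGI there is no net growth.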

Columns and labels:
Experiment in all cases: DTP human tumour cell line panel, 48 h
[1] = system: 786-0 renal
[2] = system: A498 renal
[3] = system: A549 NSCLC
[4] = system: ACHN renal
[5] = system: BT-549 breast
[6] = system: CAKI-1 renal
[7] = system: CCRF-CEM leukemia
[8] = system: COLO 205 colon
[9] = system: DU-145 prostate
[10] = system: EKVX NSCLC
[11] = system: HCC-2998 colon
[12] = system: HCT-116 colon
[13] = system: HCT-15 colon
[14] = system: HL-60(TB) leukemia
[15] = system: HOP-62 NSCLC
[16] = system: HOP-92 NSCLC
[17] = system: HS 578T breast
[18] = system: HT29 colon
[19] = system: IGROV1 ovarian
[20] = system: K-562 leukemia
[21] = system: KM12 colon
[22] = system: LOX IMVI melanoma
[23] = system: M14 melanoma
[24] = system: MALME-3M melanoma
[25] = system: MCF7 breast
[26] = system: MDA-MB-231 breast
[27] = system: MDA-MB-435
[28] = system: MOLT-4 leukemia
[29] = system: NCI-H226 lung
[30] = system: NCI-H23 lung
[31] = system: NCI-H460 lung
[32] = system: NCI-H522 lung
[33] = system: NCI/ADR-RES ovarian
[34] = system: OVCAR-3 ovarian
[35] = system: OVCAR-4 ovarian
[36] = system: OVCAR-5 ovarian
[37] = system: OVCAR-8 ovarian
[38] = system: PC-3 prostate
[39] = system: RPMI-8226 leukemia
[40] = system: RXF 393 renal
[41] = system: SF-268 CNS
[42] = system: SF-295 CNS
[43] = system: SF-539 CNS
[44] = system: SK-MEL-2 melanoma
[45] = system: SK-MEL-28 melanoma
[46] = system: SK-MEL-5 melanoma
[47] = system: SK-OV-3 ovarian
[48] = system: SN12C renal
[49] = system: SNB-19 CNS
[50] = system: SNB-75 CNS
[51] = system: SR leukemia
[52] = system: SW-620 colon
[53] = system: T-47D breast
[54] = system: TK-10 renal
[55] = system: U251 CNS
[56] = system: UACC-257 melanoma
[57] = system: UACC-62 melanoma
[58] = system: UO-31 renal
[59] = system: MDA-N

Compound: O=C(CN1CCN(c2ccccc2)CC1)N1CCN(c2nnc(-c3ccc(Cl)cc3)c(-c3ccc(Cl)cc3)n2)CC1
- GI50 [1]: 11.6 µM
- TGI [1]: 53 µM
- GI50 [2]: 9.67 µM
- TGI [2]: 78 µM
- GI50 [3]: 9.86 µM
- TGI [3]: > 100 µM
- GI50 [4]: 5.59 µM
- TGI [4]: > 100 µM
- GI50 [5]: 4.34 µM
- TGI [5]: 63.6 µM
- GI50 [6]: 13.5 µM
- TGI [6]: > 100 µM
- GI50 [7]: 8.08 µM
- TGI [7]: > 100 µM
- GI50 [8]: 3.61 µM
- TGI [8]: 27.7 µM
- GI50 [9]: 29.2 µM
- TGI [9]: > 100 µM
- GI50 [10]: 21.6 µM
- TGI [10]: > 100 µM
- GI50 [11]: 16.9 µM
- TGI [11]: > 100 µM
- GI50 [12]: 4.26 µM
- TGI [12]: 16.2 µM
- GI50 [13]: 6.35 µM
- TGI [13]: > 100 µM
- GI50 [14]: 3.16 µM
- TGI [14]: 19.4 µM
- GI50 [15]: 20.5 µM
- TGI [15]: 75.9 µM
- GI50 [16]: 12.1 µM
- TGI [16]: 27.9 µM
- GI50 [17]: 16.5 µM
- TGI [17]: > 100 µM
- GI50 [18]: 4.04 µM
- TGI [18]: 24 µM
- GI50 [19]: 6.5 µM
- TGI [19]: 40.8 µM
- GI50 [20]: 3.32 µM
- TGI [20]: > 100 µM
- GI50 [21]: 5.4 µM
- TGI [21]: > 100 µM
- GI50 [22]: 11.5 µM
- TGI [22]: 41.4 µM
- GI50 [23]: 9.99 µM
- TGI [23]: > 100 µM
- GI50 [24]: 9.35 µM
- TGI [24]: > 100 µM
- GI50 [25]: 3.08 µM
- TGI [25]: 19.6 µM
- GI50 [26]: 21.9 µM
- TGI [26]: > 100 µM
- GI50 [27]: 13.7 µM
- TGI [27]: > 100 µM
- GI50 [28]: 1630 nM
- TGI [28]: 9.97 µM
- GI50 [29]: > 100 µM
- TGI [29]: > 100 µM
- GI50 [30]: 23.4 µM
- TGI [30]: > 100 µM
- GI50 [31]: 7.92 µM
- TGI [31]: > 100 µM
- GI50 [32]: 10.7 µM
- TGI [32]: 66.6 µM
- GI50 [33]: 8.05 µM
- TGI [33]: > 100 µM
- GI50 [34]: 7.24 µM
- TGI [34]: 41.3 µM
- GI50 [35]: 11 µM
- TGI [35]: > 100 µM
- GI50 [36]: > 100 µM
- TGI [36]: > 100 µM
- GI50 [37]: 16.3 µM
- TGI [37]: > 100 µM
- GI50 [38]: 7.44 µM
- TGI [38]: > 100 µM
- GI50 [39]: 3.88 µM
- TGI [39]: 20 µM
- GI50 [40]: 9.41 µM
- TGI [40]: 63.3 µM
- GI50 [41]: 14.9 µM
- TGI [41]: > 100 µM
- GI50 [42]: 36 µM
- TGI [42]: > 100 µM
- GI50 [43]: 5.91 µM
- TGI [43]: > 100 µM
- GI50 [44]: 12.4 µM
- TGI [44]: 42.2 µM
- GI50 [45]: 56.2 µM
- TGI [45]: > 100 µM
- GI50 [46]: 6.03 µM
- TGI [46]: 29.6 µM
- GI50 [47]: > 100 µM
- TGI [47]: > 100 µM
- GI50 [48]: 13 µM
- TGI [48]: > 100 µM
- GI50 [49]: 37.2 µM
- TGI [49]: > 100 µM
- GI50 [50]: 14 µM
- TGI [50]: 71.1 µM
- GI50 [51]: 1700 nM
- TGI [51]: 6.62 µM
- GI50 [52]: 16.1 µM
- TGI [52]: > 100 µM
- GI50 [53]: 3.51 µM
- TGI [53]: 28.9 µM
- GI50 [54]: 5.97 µM
- TGI [54]: > 100 µM
- GI50 [55]: 8.16 µM
- TGI [55]: 31 µM
- GI50 [56]: 14.7 µM
- TGI [56]: > 100 µM
- GI50 [57]: 15.9 µM
- TGI [57]: > 100 µM
- GI50 [58]: 2040 nM
- TGI [58]: > 100 µM

Compound: O=C(/C=C/c1ccc(Cl)cc1)c1cccs1
- TGI [1]: 30 µM
- TGI [2]: 56 µM
- TGI [3]: 83.5 µM
- TGI [4]: 37.5 µM
- TGI [6]: 45.2 µM
- TGI [7]: 98.1 µM
- TGI [8]: 37.9 µM
- TGI [9]: > 100 µM
- TGI [10]: 68 µM
- TGI [11]: 37.5 µM
- TGI [12]: 33.8 µM
- TGI [13]: 49.9 µM
- TGI [14]: 29.8 µM
- TGI [15]: 89.8 µM
- TGI [17]: > 100 µM
- TGI [18]: > 100 µM
- TGI [19]: 75.3 µM
- TGI [20]: > 100 µM
- TGI [21]: 31.1 µM
- TGI [22]: 24.3 µM
- TGI [23]: 36.3 µM
- TGI [24]: 36.7 µM
- TGI [25]: 15.8 µM
- TGI [26]: 39.9 µM
- TGI [27]: 25.9 µM
- TGI [59]: 31.6 µM
- TGI [28]: 52.8 µM
- TGI [29]: 44.5 µM
- TGI [31]: 35.4 µM
- TGI [33]: 74.4 µM
- TGI [37]: 56.2 µM
- TGI [38]: 32.8 µM
- TGI [39]: 8.29 µM
- TGI [41]: 75.9 µM
- TGI [42]: 38.5 µM
- TGI [43]: > 100 µM
- TGI [44]: > 100 µM
- TGI [45]: 54.2 µM
- TGI [46]: 32.5 µM
- TGI [47]: 77 µM
- TGI [48]: 33.2 µM
- TGI [49]: 33.4 µM
- TGI [50]: 43.4 µM
- TGI [51]: 50.5 µM
- TGI [52]: 30.4 µM
- TGI [53]: 45.1 µM
- TGI [54]: 47 µM
- TGI [55]: 29.5 µM
- TGI [56]: 37.4 µM
- TGI [57]: 49.2 µM
- TGI [58]: 31.9 µM
